Assay: Antagonist activity against PAR2 in human HT29 cells assessed as inhibition of UTP-induced Ca2+ responses pre-incubated for 30 mins before UTP stimulation by FLIPR assay

IC50: 4.4 µM
Compound: CCOC(=O)[C@H]1CCCN(C(=O)c2cn3nc(-c4ccc(F)cc4)cc(C(F)(F)F)c3n2)[C@@H]1C

From BindingDB's records for doi:10.1021/acsmedchemlett.5b00147 (Therachem Research Medilab (India), 2015)
